What all share (assay type): physicochemical
The nature of data set [1]: Stability under humid conditions: crystalline form by XRD after exposure to relative humidity. The protocol:
(§1) X-Ray powder diffraction data were obtained by using methods known in the art with a SCINTAG powder X-Ray diffractometer model X'TRA equipped with a solid-state detector. The X-Ray radiation was copper radiation, having a wavelength of 1.5418 Å. A round aluminum sample holder with zero background was used for the measurements. All peak positions are within ±0.2° 2θ.
(§2) TGA analysis determined that this form has a water content of 7.8 percent by weight water.
Fenoldopam mesylate Type I was stored at 100 percent relative humidity for 8 days at room temperature. […]

A short description of data set [2]: Hygroscopicity: water content by TGA after exposure to relative humidity. The conditions noted are these: for Water content (by TGA): Table 4. The protocol:
The TGA analysis was performed with a Mettler M3 thermogravimeter with samples of about 8 mg and a scan rate of 10° C./min from 25° C. to 200° C., subtracting a blank from the sample. The TGA oven was constantly purged with nitrogen gas at a flow rate of 40 ml/min, and standard 150 μl alumina crucibles covered by lids with 1 hole were used.
as §2
Fenoldopam Type VI was produced when a mixture of about 50 mg of fenoldopam mesylate Type I, produced in Examples 2 and 4, was exposed to 0 percent relative humidity at room temperature for 8 days.

The nature of data set [3]: Stability on drying/heating at 80° under vacuum, crystalline form by XRD. To be noted: dried 16 hours at 80° under vacuum; methanesulfonate. The protocol:
as §1
An 81.5 gram sample of the product produce in Example 17 was dried for 16 hours at 80° under vacuum, providing a yield of 81.2 grams, having a water content of 0.05 percent by weight, and an isopropanol content of 1620 ppm. An XRD analysis confirmed the product sample was fenoldopam mesylate Type II.
A 4.08 gram sample of the product of Example 22 was dried at 80° C. under vacuum for 16 hours, providing a yield of 3.95 grams, having a water content of 0.02 percent by weight and a methanol content of 766 ppm. An XRD analysis confirmed the product sample was fenoldopam mesylate Type III.

Where [4] appears, read: 100 percent relative humidity, more than about 7 days, room temperature.

Turning to `CS(=O)(=O)O.Oc1ccc(C2CNCCc3c2cc(O)c(O)c3Cl)cc1` (centres unmarked) [Type V, 6-chloro-2,3,4,5-tetrahydro-1-(4-hydroxyphenyl)-[1H]-3-benzazepine-7,8-diol methanesulfonate], the “Crystalline form after humidity exposure (by PXRD)” value in data set [1] (setting [4]) is “transforms this form to Type I”. Also, in data set [2] (setting [4]), the “Water content (by TGA) after humidity exposure” value is given as 7.8 percent by weight.
For `CS(=O)(=O)O.Oc1ccc(C2CNCCc3c2cc(O)c(O)c3Cl)cc1` (centres unmarked) [Type III, 6-chloro-2,3,4,5-tetrahydro-1-(4-hydroxyphenyl)-[1H]-3-benzazepine-7,8-diol methanesulfonate], the “Crystalline form (by XRD)” value is recorded as “Type III” in data set [1] (Table 3, 80 % RH, 8 days); “Type III” in data set [1] (Table 3, 100 % RH, 8 days); “Type III” in data set [1] (Table 3, initial sample). In data set [3], the “Crystalline form (by XRD) after drying” value was “Type III”.
`CS(=O)(=O)O.Oc1ccc(C2CNCCc3c2cc(O)c(O)c3Cl)cc1` (centres unmarked) [Type II, 6-chloro-2,3,4,5-tetrahydro-1-(4-hydroxyphenyl)-[1H]-3-benzazepine-7,8-diol methanesulfonate, reference compound]: the “Crystalline form (by XRD) after drying” value in data set [3] is given as “Type II”.
In the case of `CS(=O)(=O)O.Oc1ccc(C2CNCCc3c2cc(O)c(O)c3Cl)cc1` (centres unmarked) [Type I, 6-chloro-2,3,4,5-tetrahydro-1-(4-hydroxyphenyl)-[1H]-3-benzazepine-7,8-diol methanesulfonate], the “Time the crystalline form is stable (remains as the Type I dihydrate) on exposure to relative humidity” value in data set [1] (0 to 100% relative humidity) is on record as “more than 5 days”. Also, the “Crystalline form (by XRD)” value is on record as “Type I” in data set [1] (20 % RH, 8 days, room temperature); “Type I” in data set [1] (40 % RH, 8 days, room temperature); “Type I” in data set [1] (60 % RH, 8 days, room temperature); “Type I” in data set [1] (80 % RH, 8 days, room temperature); “remains fenoldopam mesylate Type I” in data set [1] (100 % RH, 8 days, room temperature, methanesulfonate); “Type VI” in data set [1] (Table 4, 0 % RH, 8 days, room temperature). Also, the “Crystalline form (by XRD)” value in data set [1] (Table 4, 20 % RH, 8 days) is “Type I”; in data set [1] (Table 4, 40 % RH, 8 days), “Type I”; in data set [1] (Table 4, 60 % RH, 8 days), “Type I”; in data set [1] (Table 4, 80 % RH, 8 days), “Type I”; in data set [1] (Table 4, initial) it was “Type I”; in data set [1] (initial sample) it was “Type I”. The “Water content (by TGA)” value in data set [2] (0 % RH, 8 days, room temperature) is 0.9; in data set [2] (20 % RH, 8 days), 7.9; in data set [2] (40 % RH, 8 days), 8.0; in data set [2] (60 % RH, 8 days), 7.9; in data set [2] (80 % RH, 8 days) it was 8.0; in data set [2] (initial), 8.0.

(Values after patent US20070066594A1, “Crystalline forms fenoldopam mesylate” (priority 2005, published 2007).)
